Test results published in patent US20230190761A1, “METHYLENE BLUE STABILIZED MRNA COMPOSITIONS” (ModernaTX, Inc., priority 2020, published 2023).
“Also recorded” adds a separate entry of the source.

Legend:
Assay type in all cases: physicochemical
[1] = LC/MS analysis of PEG-lipid stability in presence of methylene blue
Protocol: This example describes the effects of methylene blue on lipid components of LNP formulations. PEG-lipid is known to be susceptible to oxidative degradation. Given the degradation mechanism attributed to methylene blue, an accelerated study was performed to evaluate whether the presence of methylene blue adversely affects PEG-lipid stability. Lyso-PEG-DMG is considered a primary bellwether of PEG-lipid degradation. As such, its concentration in samples was measured using liquid chromatography/mass spectrometry (LC/MS) after storage of LNPs at room temperature (FIG. 7A) or 5° C. (FIG. 7B) in the presence of a range of methylene blue concentrations.

[2] = system: mRNA in LNP formulations; test: mRNA-LNP purity by RP-HPLC and fragment analysis, 40° C. 12 days, light vs dark
Protocol: As detailed in this example, samples are labeled as follows: A=0 mM methylene blue; B=0.5 mM methylene blue; C=1 mM methylene blue; D=1.5 mM methylene blue; and E=2.0 mM methylene blue.
After incubating samples at 40° C. for 12 days, either protected from light or unprotected, fragmentation analysis was conducted to evaluate the presence of lipid-RNA adducts.

[3] = system: mRNA in LNP formulation containing two mRNA; test: Chemical stability of mRNA-LNP after 5 months refrigerated storage
Protocol: This example relates to stabilization of mRNA in LNP formulations by the addition of methylene blue over long-term refrigerated storage. […] To confirm that this stabilization effect would also occur with long-term refrigerated storage, a study was conducted to evaluate the effect of various concentrations of methylene blue (0, 0.5, 1, 1.5 and 2.0 mM) on the stability of a lipid nanoparticle formulation containing two distinct mRNA compounds stored at 5° C.
To determine the effects of methylene blue on the chemical stability of mRNA-LNP formulations over long-term refrigerated storage, mRNA purity, mRNA fragmentation, and mRNA-lipid adduct formation were measured over time in mRNA-LNP samples containing varying concentrations of methylene blue (A=0 mM, B=0.5 mM, C=1.0 mM, D=1.5 mM, E=2.0 mM methylene blue). Total purity was determined according to main peak percentage by RP-HPLC (FIG. 13A), fragmentation was determined according to fragmentation analysis (FIG. 13B), and mRNA-lipid adduct formation was determined according to RP-HPLC (FIG. 13C).

[4] = system: mRNA-LNP formulations; test: mRNA-LNP stability in differing buffer conditions with or without methylene blue (fragmentation analysis and RP-HPLC); settings: 150 mM NaCl, 2 mM MB
Protocol: This example discusses stabilization effects of methylene blue on mRNA-LNP formulations in varying buffer conditions. To match experiments conducted on lyophilized products, which were reconstituted in saline, and refrigerated/frozen formulations in TRIS-Sucrose, two buffers across the range of pH were tested. Sodium chloride was added to mimic saline, as it can cause methylene blue to crash out of solution.

[5] = system: mRNA; test: Circular dichroism of mRNA with methylene blue; settings: addition of methylene blue (210 μM, 367 μM)
Source text: The effect of methylene blue on the conformational state of mRNA is also apparent from the circular dichroism (CD) spectra shown in FIG. 20. The CD bands correspond to the intrinsic CD of the mRNA itself. […] The stabilizing effect of methylene blue observed on mRNA may be attributed to this binding and conformational stabilization evident from the DSC thermograms (FIGS. 18 and 19).

[6] = system: lipid nanoparticles (LNP); test: Permeation of phenothiazinium dyes into LNP and binding to encapsulated mRNA; settings: optical spectroscopic studies, Cryo-EM, DLS, isothermal titration calorimetry
Source text: This example describes phenothiazinium dyes which interact with mRNA and their impact on LNP formulations. […] These interpretations were made based on extensive optical spectroscopic studies, Cryo-EM, dynamic light scattering (DLS) and isothermal titration calorimetry studies.

**Q.** What does the source list for CN(C)c1ccc2nc3ccc(N(C)C)cc3[s+]c2c1 [methylene blue]?
**A.** total quantity of PEG-lipid (LC/MS) ([1]; 0, 0.1, 0.5 and 1 mM methylene blue, 1 week at room temperature or 5° C.): no effect on the total quantity of PEG-lipid present; Lyso-PEG-DMG signal (LC/MS) ([1]; 0 to 1.0 mM methylene blue, LNPs at room temperature or 5° C., 1 week): no difference in Lyso-PEG-DMG signal was detected; mRNA stability by RP-HPLC and fragmentation analysis ([2]; 12 days, protected from light, 0.5-2.0 mM methylene blue, vs −80 C controls): enhanced the stability of mRNA in LNP formulations; mRNA degradation by RP-HPLC and fragmentation analysis ([2]; 12 days, unprotected from light, samples B-E (0.5-2.0 mM methylene blue)): more mRNA degradation than samples stored protected from light or those without methylene blue; adduct formation ([2]; protected from light): did not have a detrimental effect on adduct formation; optimal methylene blue concentration with respect to adduct formation ([3]; 5 months refrigerated storage, RP-HPLC): 1.5 mM; mRNA fragmentation rate ([3]; methylene blue as low as 0.5 mM, 5 months (151 days) refrigerated storage): significantly inhibit mRNA fragmentation rate relative to LNP compositions lacking dye; also recorded: significantly inhibited relative to control; Adduct ([4]; pH 7, TRIS-sucrose buffer): 17.6%; Fragmentation ([4]; pH 7, TRIS-sucrose buffer): 16.0%; Main peak ([4]; pH 7, TRIS-sucrose buffer): 66.4%; Adduct ([4]; pH 7, phosphate buffer): 23.9%; Fragmentation ([4]; pH 7, phosphate buffer): 17.1%; Main peak ([4]; pH 7, phosphate buffer): 59.1%; Adduct ([4]; pH 7.5, TRIS-sucrose buffer): 16.4%; Fragmentation ([4]; pH 7.5, TRIS-sucrose buffer): 19.5%; Main peak ([4]; pH 7.5, TRIS-sucrose buffer): 64.1%; Adduct ([4]; pH 7.5, phosphate buffer): 22.0%; Fragmentation ([4]; pH 7.5, phosphate buffer): 18.7%; Main peak ([4]; pH 7.5, phosphate buffer): 59.4%; Adduct ([4]; pH 8, TRIS-sucrose buffer): 15.9%; Fragmentation ([4]; pH 8, TRIS-sucrose buffer): 22.9%; Main peak ([4]; pH 8, TRIS-sucrose buffer): 61.2%; Adduct ([4]; pH 8, phosphate buffer): 22.7%; Fragmentation ([4]; pH 8, phosphate buffer): 25.0%; Main peak ([4]; pH 8, phosphate buffer): 52.2%; Adduct ([4]; pH 8.5, TRIS-sucrose buffer): 13.3%; Fragmentation ([4]; pH 8.5, TRIS-sucrose buffer): 32.5%; Main peak ([4]; pH 8.5, TRIS-sucrose buffer): 54.1%; intrinsic CD bands of mRNA [5]: significant perturbation in these bands; permeation of lipid nanoparticles and binding to encapsulated mRNA [6]: does not permeate LNPs to the same extent as certain other phenothiazinium dyes
